Measurements from patent publication US10945932B2, “Prebiotic oral care compositions containing carboxylic acids” (COLGATE-PALMOLIVE COMPANY, priority 2013, dated 2021).
Read-outs that look alike come from different tables or passages of the source.

Experiments:
Actinomyces naeslundii [1] = settings: A naeslundii, BHI
Experimental: (§1) Late exponential growth phase liquid cultures were prepared by transferring the respective bacterium from blood agar plates to BHI and overnight incubation at 37° C. in an anaerobic atmosphere for A. viscosus, V. parvula, F. nucleatum, P. gingivalis, P. intermedia, T forsythia, A. naeslundii, and C. sputigena, and in a 5% CO2 environment for S. salivarius, S. sanguinis, S. mitis, A. actinomycetemcomitans, S. mutans, S. sobrinus and S. gordonii. Overnight cultures were transferred to BHI and adjusted to a concentration of 1×10^7 CFU/ml (colony forming units per ml) by measuring the optical density at 600 nm (OD600) (BioRad SmartSpec 3000). For each strain, 200 μl of the bacterial suspension was added to a 96-well plate containing 20 μl of the respective carboxylic acids. Final concentrations of the carboxylic acids were set to 5, 10, 20 and 25 μmol/ml. […] Plates were incubated as previously described.
(§2) For each combination of bacterium/carboxylic acid, and for each of their respective controls (i.e. the particular bacterium in the nutritionally rich medium with no carboxylic acid), the optical density was measured at 630 nm (OD630) at 0 h, 24 h and 48 h (Thermo Scientific Multiskan Ascent). Additionally, the OD630 for combinations of bacterium/carboxylic acid grown in a 5% CO2 environment were also measured every hour between 0 h and 9 h.
(§3) The experiment was carried out on three different days (thus providing 3 biological replicas) and on each day the experiment was carried out in quadruple (thus providing 4 technical replicas) for each combination of bacterium with carboxylic acid and for each control. For each day and for each combination, the average (mean) of the values obtained (as detailed above) for the four technical replicas was calculated to provide a single value for each combination on each day.

Actinomyces viscosus [2] = settings: A viscosus, BHI
Experimental: as §1, §2, §3

Streptococcus sobrinus = test: Metabolic activity, Biolog phenotype microarray; format: cell-based; settings: S sobrinus
Streptococcus mitis = test: Metabolic activity, Biolog phenotype microarray; format: cell-based; settings: S mitis
Veillonella parvula = test: Metabolic activity, Biolog phenotype microarray; format: cell-based; settings: V parvula
[3] = system: Aggregatibacter actinomycetemcomitans; test: Metabolic activity, Biolog phenotype microarray; format: cell-based; settings: A actinomycetemcomitans
Actinomyces viscosus [4] = test: Metabolic activity, Biolog phenotype microarray; format: cell-based; settings: A viscosus
Streptococcus mutans [5] = test: Metabolic activity, Biolog phenotype microarray; format: cell-based; settings: S mutans
Streptococcus sanguinis [6] = test: Metabolic activity, Biolog phenotype microarray; format: cell-based; settings: S sanguinis
Streptococcus gordonii = test: Metabolic activity, Biolog phenotype microarray; format: cell-based; settings: S gordonii
Fusobacterium nucleatum = test: Metabolic activity, Biolog phenotype microarray; format: cell-based; settings: F nucleatum
Capnocytophaga sputigena [7] = test: Metabolic activity, Biolog phenotype microarray; format: cell-based; settings: C sputigena
Prevotella intermedia = test: Metabolic activity, Biolog phenotype microarray; format: cell-based; settings: P intermedia
Tannerella forsythia [8] = test: Metabolic activity, Biolog phenotype microarray; format: cell-based; settings: T forsythia
Streptococcus salivarius [9] = test: Metabolic activity, Biolog phenotype microarray; format: cell-based; settings: S salivarius
Actinomyces naeslundii [10] = test: Metabolic activity, Biolog phenotype microarray; format: cell-based; settings: A naeslundii
Porphyromonas gingivalis = test: Metabolic activity, Biolog phenotype microarray; format: cell-based; settings: P gingivalis
Capnocytophaga sputigena [11] = settings: C sputigena, BHI
Experimental: as §1, §2, §3

Streptococcus sanguinis [12] = settings: S sanguinis, BHI
Experimental: as §1, §2, §3

Streptococcus salivarius [13] = settings: S salivarius, BHI
Experimental: as §1, §2, §3

[14] = system: Aggregatibacter actinomycetemcomitans; settings: A actinomycetemcomitans, BHI
Experimental: as §1, §2, §3

Tannerella forsythia [15] = settings: T forsythia, BHI
Experimental: as §1, §2, §3

Streptococcus mutans [16] = settings: S mutans, BHI
Experimental: as §1, §2, §3

[17] = system: beneficial oral bacteria and pathogenic oral bacteria; test: Metabolic activity, prebiotic effect over the whole panel; format: cell-based; settings: threshold value of 2
[18] = system: beneficial oral bacteria and pathogenic oral bacteria; settings: over 48 hours, threshold value of 1.25
Text: The beneficial oral bacteria tested were Streptococcus mitis, Streptococcus salivarius, Streptococcus sanguinis, Actinomyces viscosus, Streptococcus gordonii, Capnocytophaga sputigena, Actinomyces naeslundii and Veillonella parvula. The pathogenic oral bacteria tested were Streptococcus mutans, Prevotella intermedia, Porphyromonas gingivalis, Fusobacterium nucleatum, Tannerella forsythia, Aggregatibacter actinomycetemcomitans and Streptococcus sobrinus.
as §1, §2, §3
This value was selected in order to exclude low-stimulating metabolites and avoid false positive results.

## O=C(O)CCC(=O)O [Succinic acid, succinic acid]
Actinomyces naeslundii [1]; 5 μmol/ml
  extent of growth, maximal OD630 over 48 hr divided by maximal OD of control (control = 1): 0.9975
Actinomyces naeslundii [1]; 10 μmol/ml
  extent of growth, maximal OD630 over 48 hr divided by maximal OD of control (control = 1): 0.5885
Actinomyces naeslundii [1]; 20 μmol/ml
  extent of growth, maximal OD630 over 48 hr divided by maximal OD of control (control = 1): 0.2228
Actinomyces naeslundii [1]; 25 μmol/ml
  extent of growth, maximal OD630 over 48 hr divided by maximal OD of control (control = 1): 0.1840
Actinomyces viscosus [2]; 5 μmol/ml
  extent of growth, maximal OD630 over 48 hr divided by maximal OD of control (control = 1): 0.5671
Actinomyces viscosus [2]; 10 μmol/ml
  extent of growth, maximal OD630 over 48 hr divided by maximal OD of control (control = 1): 0.3693
Actinomyces viscosus [2]; 20 μmol/ml
  extent of growth, maximal OD630 over 48 hr divided by maximal OD of control (control = 1): 0.1827
Actinomyces viscosus [2]; 25 μmol/ml
  extent of growth, maximal OD630 over 48 hr divided by maximal OD of control (control = 1): 0.1586
Streptococcus sobrinus; 24 hrs
  metabolic activity, OD at 492 nm divided by OD of control (control = 1): 0.8265
Streptococcus sobrinus; 48 hrs
  metabolic activity, OD at 492 nm divided by OD of control (control = 1): 0.8068
Streptococcus mitis; 24 hrs
  metabolic activity, OD at 492 nm divided by OD of control (control = 1): 0.9268
Streptococcus mitis; 48 hrs
  metabolic activity, OD at 492 nm divided by OD of control (control = 1): 0.8537
Veillonella parvula; 24 hrs
  metabolic activity, OD at 492 nm divided by OD of control (control = 1): 2.8247
Veillonella parvula; 48 hrs
  metabolic activity, OD at 492 nm divided by OD of control (control = 1): 2.2852
[3]; 24 hrs
  metabolic activity, OD at 492 nm divided by OD of control (control = 1): 1.1066
[3]; 48 hrs
  metabolic activity, OD at 492 nm divided by OD of control (control = 1): 1.2815
Actinomyces viscosus [4]; 24 hrs
  metabolic activity, OD at 492 nm divided by OD of control (control = 1): 0.9752
Actinomyces viscosus [4]; 48 hrs
  metabolic activity, OD at 492 nm divided by OD of control (control = 1): 1.0089
Streptococcus mutans [5]; 24 hrs
  metabolic activity, OD at 492 nm divided by OD of control (control = 1): 0.8991
Streptococcus mutans [5]; 48 hrs
  metabolic activity, OD at 492 nm divided by OD of control (control = 1): 0.8576
Streptococcus sanguinis [6]; 24 hrs
  metabolic activity, OD at 492 nm divided by OD of control (control = 1): 0.9046
Streptococcus sanguinis [6]; 48 hrs
  metabolic activity, OD at 492 nm divided by OD of control (control = 1): 0.8763
Streptococcus gordonii; 24 hrs
  metabolic activity, OD at 492 nm divided by OD of control (control = 1): 0.7960
Streptococcus gordonii; 48 hrs
  metabolic activity, OD at 492 nm divided by OD of control (control = 1): 0.8167
Fusobacterium nucleatum; 24 hrs
  metabolic activity, OD at 492 nm divided by OD of control (control = 1): 0.8508
Fusobacterium nucleatum; 48 hrs
  metabolic activity, OD at 492 nm divided by OD of control (control = 1): 0.8574
Capnocytophaga sputigena [7]; 24 hrs
  metabolic activity, OD at 492 nm divided by OD of control (control = 1): 1.0400
Capnocytophaga sputigena [7]; 48 hrs
  metabolic activity, OD at 492 nm divided by OD of control (control = 1): 1.0105
Prevotella intermedia; 24 hrs
  metabolic activity, OD at 492 nm divided by OD of control (control = 1): 1.0677
Prevotella intermedia; 48 hrs
  metabolic activity, OD at 492 nm divided by OD of control (control = 1): 1.1361
Tannerella forsythia [8]; 24 hrs
  metabolic activity, OD at 492 nm divided by OD of control (control = 1): 0.9307
Tannerella forsythia [8]; 48 hrs
  metabolic activity, OD at 492 nm divided by OD of control (control = 1): 0.9641
Streptococcus salivarius [9]; 24 hrs
  metabolic activity, OD at 492 nm divided by OD of control (control = 1): 0.9019
Streptococcus salivarius [9]; 48 hrs
  metabolic activity, OD at 492 nm divided by OD of control (control = 1): 0.8347
Actinomyces naeslundii [10]; 24 hrs
  metabolic activity, OD at 492 nm divided by OD of control (control = 1): 0.9767
Actinomyces naeslundii [10]; 48 hrs
  metabolic activity, OD at 492 nm divided by OD of control (control = 1): 0.9858
Porphyromonas gingivalis; 24 hrs
  metabolic activity, OD at 492 nm divided by OD of control (control = 1): 0.8726
Porphyromonas gingivalis; 48 hrs
  metabolic activity, OD at 492 nm divided by OD of control (control = 1): 0.9109
Capnocytophaga sputigena [11]; 5 μmol/ml
  extent of growth, maximal OD630 over 48 hr divided by maximal OD of control (control = 1): 0.9743
Capnocytophaga sputigena [11]; 10 μmol/ml
  extent of growth, maximal OD630 over 48 hr divided by maximal OD of control (control = 1): 0.7668
Capnocytophaga sputigena [11]; 20 μmol/ml
  extent of growth, maximal OD630 over 48 hr divided by maximal OD of control (control = 1): 0.6198
Capnocytophaga sputigena [11]; 25 μmol/ml
  extent of growth, maximal OD630 over 48 hr divided by maximal OD of control (control = 1): 0.4571
Streptococcus sanguinis [12]; 5 μmol/ml
  extent of growth, maximal OD630 over 48 hr divided by maximal OD of control (control = 1): 0.7980
Streptococcus sanguinis [12]; 10 μmol/ml
  extent of growth, maximal OD630 over 48 hr divided by maximal OD of control (control = 1): 0.6726
Streptococcus sanguinis [12]; 20 μmol/ml
  extent of growth, maximal OD630 over 48 hr divided by maximal OD of control (control = 1): 0.2724
Streptococcus sanguinis [12]; 25 μmol/ml
  extent of growth, maximal OD630 over 48 hr divided by maximal OD of control (control = 1): 0.2132
Streptococcus salivarius [13]; 5 μmol/ml
  extent of growth, maximal OD630 over 48 hr divided by maximal OD of control (control = 1): 1.0823
Streptococcus salivarius [13]; 10 μmol/ml
  extent of growth, maximal OD630 over 48 hr divided by maximal OD of control (control = 1): 0.8904
Streptococcus salivarius [13]; 20 μmol/ml
  extent of growth, maximal OD630 over 48 hr divided by maximal OD of control (control = 1): 0.2795
Streptococcus salivarius [13]; 25 μmol/ml
  extent of growth, maximal OD630 over 48 hr divided by maximal OD of control (control = 1): 0.2197
[14]; 5 μmol/ml
  extent of growth, maximal OD630 over 48 hr divided by maximal OD of control (control = 1): 0.6497
[14]; 10 μmol/ml
  extent of growth, maximal OD630 over 48 hr divided by maximal OD of control (control = 1): 0.4197
[14]; 20 μmol/ml
  extent of growth, maximal OD630 over 48 hr divided by maximal OD of control (control = 1): 0.1940
[14]; 25 μmol/ml
  extent of growth, maximal OD630 over 48 hr divided by maximal OD of control (control = 1): 0.1968
Tannerella forsythia [15]; 5 μmol/ml
  extent of growth, maximal OD630 over 48 hr divided by maximal OD of control (control = 1): 0.9040
Tannerella forsythia [15]; 10 μmol/ml
  extent of growth, maximal OD630 over 48 hr divided by maximal OD of control (control = 1): 0.7937
Tannerella forsythia [15]; 20 μmol/ml
  extent of growth, maximal OD630 over 48 hr divided by maximal OD of control (control = 1): 0.7975
Tannerella forsythia [15]; 25 μmol/ml
  extent of growth, maximal OD630 over 48 hr divided by maximal OD of control (control = 1): 0.8103
Streptococcus mutans [16]; 5 μmol/ml
  extent of growth, maximal OD630 over 48 hr divided by maximal OD of control (control = 1): 0.8643
Streptococcus mutans [16]; 10 μmol/ml
  extent of growth, maximal OD630 over 48 hr divided by maximal OD of control (control = 1): 0.8599
Streptococcus mutans [16]; 20 μmol/ml
  extent of growth, maximal OD630 over 48 hr divided by maximal OD of control (control = 1): 0.8734
Streptococcus mutans [16]; 25 μmol/ml
  extent of growth, maximal OD630 over 48 hr divided by maximal OD of control (control = 1): 0.8448
[17]; 24 hrs
  prebiotic effect (metabolic activity): exhibited prebiotic effects
[17]; 48 hrs
  prebiotic effect (metabolic activity): exhibited prebiotic effects
[18]; 20 μmol/ml
  prebiotic effect (extent of growth): exhibited prebiotic effects
[18]; 25 μmol/ml
  prebiotic effect (extent of growth): exhibited prebiotic effects
